Values after ≈ are worked out from the molar mass of the structure shown. Active and inactive are the calls of the source. No cut-off for these calls is given here.
Experiments:
Type in all cases: functional
[1] = tested on: Aggregatibacter actinomycetemcomitans; test: Antibacterial activity against Actinobacillus actinomycetemcommitans ATCC 43717 after 1 to 2 days under anaerobic condition by serial dilution method
Actinomyces naeslundii = test: Antibacterial activity against Actinomyces naeslundii ATCC 12104 after 1 to 2 days under anaerobic condition by serial dilution method
Streptococcus mutans = test: Antibacterial activity against Streptococcus mutans ATCC 25175 after 1 to 2 days under anaerobic condition by serial dilution method

`C=C[C@@]1(C)CC[C@@]2(C)[C@@H](CC=C3[C@@H]2CCC[C@]3(C)CO[C@@H]2O[C@@H](COC(C)=O)[C@H](OC(C)=O)[C@H]2O)C1` was tested, and the Activity [1] was “inactive”.

With `C=C[C@@]1(C)CC[C@@]2(C)[C@@H](CC=C3[C@@H]2CCC[C@]3(C)CO[C@@H]2O[C@@H](COC(C)=O)[C@H](O)[C@H]2OC(C)=O)C1` [SAGITTINE E] the MIC [1] was greater than 250 mg/L, the MIC (Actinomyces naeslundii) was 62.5 mg/L (≈ 124 µM) and the MIC (Streptococcus mutans) was greater than 250 mg/L.

With `C=C[C@@]1(C)CC[C@@]2(C)[C@@H](CC[C@]3(O)[C@@H]2CCC[C@]3(C)C(=O)O)C1` the Activity [1] was “inactive”.

Work on `C=C[C@@]1(C)CC[C@@]2(C)[C@@H](CC=C3[C@@H]2CCC[C@]3(C)CO[C@@H]2O[C@@H](COC(C)=O)[C@H](O)[C@H]2O)C1` [SAGITTINE C] yielded an MIC [1] of 250 mg/L (≈ 540 µM), an MIC (Actinomyces naeslundii) of 62.5 mg/L (≈ 135 µM) and an MIC (Streptococcus mutans) of 62.5 mg/L (≈ 135 µM).

Molecule `C=C[C@@]1(C)CC[C@@]2(C)[C@@H](CC=C3[C@@H]2CCC[C@]3(C)CO[C@@H]2O[C@@H](CO)[C@H](O)[C@H]2OC(C)=O)C1` [SAGITTINE D] has an MIC [1] of 250 mg/L (≈ 540 µM), an MIC (Actinomyces naeslundii) of 125 mg/L (≈ 270 µM) and an MIC (Streptococcus mutans) of 125 mg/L (≈ 270 µM).

`C=C[C@@]1(C)CC[C@@]2(C)[C@@H](CC=C3[C@@H]2CCC[C@]3(C)CO[C@@H]2O[C@@H](CO)[C@H](O)[C@H]2O)C1` [SAGITTINE B] was tested, and the MIC [1] was 250 mg/L (≈ 594 µM), the MIC (Actinomyces naeslundii) was 125 mg/L (≈ 297 µM) and the MIC (Streptococcus mutans) was 62.5 mg/L (≈ 149 µM).

`C=C[C@@]1(C)CC[C@@]2(C)[C@@H](CC=C3[C@@H]2CCC[C@]3(C)C(=O)O)C1` [SAGITTINE A] gave an MIC [1] greater than 250 mg/L, an MIC (Actinomyces naeslundii) of 62.5 mg/L (≈ 207 µM) and an MIC (Streptococcus mutans) of 62.5 mg/L (≈ 207 µM).

From ChEMBL document CHEMBL1157253, “ent-rosane and labdane diterpenoids from Sagittaria sagittifolia and their antibacterial activity against three oral pathogens” (2006)
